Source: patent US20240360154A1, “AROYL SUBSTITUTED TRICYCLIC COMPOUND, PREPARATION METHOD THEREFOR AND USE THEREOF” (GENFLEET THERAPEUTICS (SHANGHAI) INC., priority 2020, published 2024)

Key:
BTK (C481S) = BTK (C481S) (Homo sapiens (Human), UniProt Q06187, C481S); experiment: BTK C481S enzyme experiment (ADP-Glo kinase assay); type: biochemical; conditions: 10 nM BTK C481S, ATP 125 μM, Poly(Glu4, Tyr1), 90 minutes at 20° C.
Description: (§1) A 3-fold gradient concentration stock solution of 1000× compound was prepared using DMSO and diluted 100-fold to 10× compound stock solution using reaction buffer (50 mM HEPES, pH 7.5, 0.0015% Briji-35, 2 mM DTT, 10 mM MgCl2), and the 10× compound stock solution was transferred to a 384-well plate. Enzyme reactions were set up with BTK Kinase Enzyme System (Promega Catalog #V2941) or BTK (C481S) Kinase Enzyme System (Promega Catalog #VA7033). First, a 2× enzyme solution containing 10 nM BTK or 10 nM BTK C481S was prepared with reaction buffer and added to the plate, and incubated with the compound for 10 minutes. […] Finally, the kinase activity was detected according to the experimental steps provided by ADP-Glo™ kinase Assay Kit (Promega, #V9101), and finally the luminescence chemiluminescence value was read. DMSO was used as the maximum signal value, and adding no enzyme was used as the minimum signal value. The inhibition rate of the compound (%)=(maximum signal value−compound signal value)/(maximum signal value−minimum signal value)×100% was calculated. The compound gradient dilution concentration and the corresponding inhibition rate of the enzyme activity were fit by using XLFit four-parameter method, and IC50 value was calculated.

BTK = BTK (Homo sapiens (Human), UniProt Q06187); experiment: BTK enzyme experiment (ADP-Glo kinase assay); type: biochemical; conditions: 10 nM BTK, ATP 125 μM, Poly(Glu4, Tyr1), 90 minutes at 20° C.; read-out: BTK(WT) IC50
Chain of BTK (Q06187 whole entry): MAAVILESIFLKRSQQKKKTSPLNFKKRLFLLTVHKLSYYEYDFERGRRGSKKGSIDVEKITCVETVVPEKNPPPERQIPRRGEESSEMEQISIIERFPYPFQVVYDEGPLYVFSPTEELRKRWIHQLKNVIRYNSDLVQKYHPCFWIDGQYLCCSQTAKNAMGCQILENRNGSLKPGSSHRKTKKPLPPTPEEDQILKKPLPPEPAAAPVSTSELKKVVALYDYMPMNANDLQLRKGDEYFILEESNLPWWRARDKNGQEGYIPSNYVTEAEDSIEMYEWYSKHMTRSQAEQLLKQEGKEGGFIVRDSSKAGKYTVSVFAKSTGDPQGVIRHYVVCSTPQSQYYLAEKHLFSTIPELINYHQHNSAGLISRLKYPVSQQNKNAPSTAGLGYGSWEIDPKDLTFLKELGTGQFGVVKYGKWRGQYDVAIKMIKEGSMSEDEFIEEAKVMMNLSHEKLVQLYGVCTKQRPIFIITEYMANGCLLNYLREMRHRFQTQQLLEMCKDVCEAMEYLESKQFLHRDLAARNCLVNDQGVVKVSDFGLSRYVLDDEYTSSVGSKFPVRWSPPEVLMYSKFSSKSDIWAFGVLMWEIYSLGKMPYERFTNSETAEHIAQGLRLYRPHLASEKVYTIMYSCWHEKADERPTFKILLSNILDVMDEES
Description: as §1

Chain of BTK (C481S) (Q06187 whole entry C481S): as the sequence (Q06187 whole entry) above, with C481S counted along it

IC50 (BTK (C481S)) | IC50 (BTK) | SMILES
18.4 nM | 22.9 nM | Cc1ccnc(Oc2ccc(C(=O)c3c[nH]c4ncc5c(c34)NC(C)(CO)C(=O)N5)c(Cl)c2)c1 (stereo not shown) [Z56, 9-(2-chloro-4-((4-methylpyridin-2-yl)oxy)benzoyl)-2-(hydroxymethyl)-2-methyl-1,2,4,7-tetrahydro-3H-pyrrolo[3′,2′:5,6]pyrido[3,4-b]pyrazin-3-one]
9.8 nM | 20.1 nM | COC[C@]1(C)Nc2c(cnc3[nH]cc(C(=O)c4sccc4Cl)c23)NC1=O [Z103, (S)-9-(3-chlorothiophene-2-carbonyl)-2-(methoxymethyl)-2-methyl-1,2,4,7-tetrahydro-3H-pyrrolo[3′,2′:5,6]pyrido[3,4-b]pyrazin-3-one]
70.5 nM | 64.1 nM | COC[C@]1(C)Nc2c(cnc3[nH]cc(C(=O)c4ccc(OC5CCCC5)cc4Cl)c23)NC1=O [Z122, (S)-9-(2-chloro-4-(cyclopentyloxy)benzoyl)-2-(methoxymethyl)-2-methyl-1,2,4,7-tetrahydro-3H-pyrrolo[3′,2′:5,6]pyrido[3,4-b]pyrazin-3-one]
28.3 nM | 17.5 nM | COCC1(C)Nc2c(cnc3[nH]cc(C(=O)c4ccc(Oc5cc(C)ccn5)cc4F)c23)NC1=O (single isomer, unassigned) [Z69-2, 9-(2-fluoro-4-((4-methylpyridin-2-yl)oxy)benzoyl)-2-(methoxymethyl)-2-methyl-1,2,4,7-tetrahydro-3H-pyrrolo[3′,2′:5,6]pyrido[3,4-b]pyrazin-3-one]
7.2 nM | 27.1 nM | CN1C(=O)C2(CCOCC2)Nc2c1cnc1[nH]cc(C(=O)c3ccc(Oc4ccccc4)cc3Cl)c21 [Z22, 9′-(2-chloro-4-phenoxybenzoyl)-4′-methyl-2,3,4′,5,6,7′-hexahydrospiro[pyran-4,2′-pyrrolo[3′,2′:5,6]pyrido[3,4-b]pyrazin]-3′(1′H)-one]
120 nM | 142 nM | CC1(CO)Nc2c(cnc3[nH]cc(C(=O)c4ccc(Oc5ncccc5C(F)(F)F)cc4Cl)c23)NC1=O (stereo not shown) [Z55, 9-(2-chloro-4-((3-(trifluoromethyl)pyridin-2-yl)oxy)benzoyl)-2-(hydroxymethyl)-2-methyl-4,7-dihydro-1H-pyrrolo[3′,2′:5,6]pyrido[3,4-b]pyrazin-3(2H)-one]
215 nM | 122 nM | COC[C@]1(C)Nc2c(cnc3[nH]cc(C(=O)c4ccc(Oc5ccccc5)cc4Cl)c23)N=C1SC [Z201, (S)-(2-chloro-4-phenoxyphenyl)(2-(methoxymethyl)-2-methyl-3-(methylthio)-2,7-dihydro-1H-pyrrolo[3′,2′:5,6]pyrido[3,4-b]pyrazin-9-yl)methanone]
273 nM | 345 nM | CN1CCC2(CC1)Nc1c(cnc3[nH]cc(C(=O)c4ccc(Oc5ccccc5)cc4Cl)c13)NC2=O [Z17, 9′-(2-chloro-4-phenoxybenzoyl)-1-methyl-4′,7′-dihydrospiro[piperidine-4,2′-pyrrolo[3′,2′:5,6]pyrido[3,4-b]pyrazin]-3′(1′H)-one]
38.4 nM | 28.8 nM | COC[C@]1(C)Nc2c(cnc3[nH]cc(C(=O)c4ncc(Oc5ccccc5)cc4Cl)c23)NC1=O [Z133]
9.9 nM | 18.8 nM | COC[C@]1(C)Nc2c(cnc3[nH]cc(C(=O)c4ccccc4Cl)c23)N=C1OC [Z200, (S)-(2-chlorophenyl)(3-methoxy-2-(methoxymethyl)-2-methyl-2,7-dihydro-1H-pyrrolo[3′,2′:5,6]pyrido[3,4-b]pyrazin-9-yl)methanone]
18.5 nM | 15.2 nM | COC[C@]1(C)Nc2c(cnc3[nH]cc(C(=O)c4cc(F)ccc4Cl)c23)NC1=O [Z85, (S)-9-(2-chloro-5-fluorobenzoyl)-2-(methoxymethyl)-2-methyl-1,2,4,7-tetrahydro-3H-pyrrolo[3′,2′:5,6]pyrido[3,4-b]pyrazin-3-one]
36.5 nM | 28.4 nM | [2H]C([2H])([2H])OC[C@]1(C)Nc2c(cnc3[nH]cc(C(=O)c4ccc(Cn5cccn5)cc4Cl)c23)NC1=O [Z170, (S)-9-(4-((1H-pyrazol-1-yl)methyl)-2-chlorobenzoyl)-2-((methoxy-d3)methyl)-2-methyl-1,2,4,7-tetrahydro-3H-pyrrolo[3′,2′:5,6]pyrido[3,4-b]pyrazin-3-one]
142 nM | 75.1 nM | CCSC1=Nc2cnc3[nH]cc(C(=O)c4ccc(Oc5ccccc5)cc4Cl)c3c2N[C@@]1(C)COC [Z203, (S)-(2-chloro-4-phenoxyphenyl)(3-(ethylthio)-2-(methoxymethyl)-2-methyl-2,7-dihydro-1H-pyrrolo[3′,2′:5,6]pyrido[3,4-b]pyrazin-9-yl)methanone]
19.2 nM | 23.5 nM | COC[C@]1(C)Nc2c(cnc3[nH]cc(C(=O)c4ccc(Oc5ccccc5)cc4F)c23)NC1=O (single isomer, unassigned) [Z71-2]
21.9 nM | 19.1 nM | [2H]C([2H])([2H])OC[C@]1(C)Nc2c(cnc3[nH]cc(C(=O)c4ccc(Oc5ccccc5)cc4Cl)c23)N(C([2H])([2H])[2H])C1=O [Z193, (S)-9-(2-chloro-4-phenoxybenzoyl)-2-((methoxy-d3)methyl)-2-methyl-4-(methyl-d3)-1,2,4,7-tetrahydro-3H-pyrrolo[3′,2′:5,6]pyrido[3,4-b]pyrazin-3-one]
61.1 nM | 61.8 nM | COC[C@]1(C)Nc2c(cnc3[nH]cc(C(=O)c4ccc(OC)cc4Cl)c23)NC1=O [Z113, (S)-9-(2-chloro-4-methoxybenzoyl)-2-(methoxymethyl)-2-methyl-1,2,4,7-tetrahydro-3H-pyrrolo[3′,2′:5,6]pyrido[3,4-b]pyrazin-3-one]
76.5 nM | 74.4 nM | [2H]C([2H])([2H])OC[C@]1(C)Nc2c(cnc3[nH]cc(C(=O)c4ccc(Cn5nccc5C)cc4Cl)c23)NC1=O [Z175, (S)-9-(2-chloro-4-((5-methyl-1H-pyrazol-1-yl)methyl)benzoyl)-2-((methoxy-d3)methyl)-2-methyl-1,2,4,7-tetrahydro-3H-pyrrolo[3′,2′:5,6]pyrido[3,4-b]pyrazin-3-one]
92.3 nM | 136 nM | COCC1(C)Nc2c(cnc3[nH]cc(C(=O)c4ccc(Oc5ccccc5)cc4Cl)c23)N(C)C1=O (single isomer, unassigned) [Z52-2, 9-(2-chloro-4-phenoxybenzoyl)-2-(methoxymethyl)-2,4-dimethyl-1,2,4,7-tetrahydro-3H-pyrrolo[3′,2′:5,6]pyrido[3,4-b]pyrazin-3-one]
60.8 nM | 34.3 nM | COCC1(C)Nc2c(cnc3[nH]cc(C(=O)c4ccc(Oc5cc(C6CC6)ccn5)cc4Cl)c23)NC1=O (single isomer, unassigned) [Z73-2, 9-(2-chloro-4-((4-cyclopropylpyridin-2-yl)oxy)benzoyl)-2-(methoxymethyl)-2-methyl-4,7-dihydro-1H-pyrrolo[3′,2′:5,6]pyrido[3,4-b]pyrazin-3(2H)-one]
51.1 nM | 114 nM | COCCOCC1(C)Nc2c(cnc3[nH]cc(C(=O)c4ccc(Oc5ccccc5)cc4Cl)c23)NC1=O (single isomer, unassigned) [Z153-2, 9-(2-chloro-4-phenoxybenzoyl)-2-((2-methoxyethoxy)methyl)-2-methyl-1,2,4,7-tetrahydro-3H-pyrrolo[3′,2′:5,6]pyrido[3,4-b]pyrazin-3-one]
